Our source for the MIC values is patent publication US12215126B2, “Cationic steroidal antimicrobial compounds with endogenous groups” (Brigham Young University, priority 2020, dated 2025).

≈ marks a conversion by molar mass, not a printed value. Where two headings read alike, the source gives them in different places.

Common to all, as to assay: Antimicrobial activity, minimum inhibitory concentration (MIC)
What all share (format): cell-based

For one assay, the system named is Candida albicans 90028. The method, then:
(§1) The antimicrobial activity of CSA-148 was determined in comparison to CSA-44, a CSA compound known to have very high antimicrobial activity compared to other CSAs. The microbes used in the comparative test was were Candida albicans 90028, methicillin resistant Staphylococcus aureus (MRSA) BAA-41, and Pseudomonas aeruginosa (PA01 47085).
The measured MICs for C. albicans 90028 were based on 100% inhibition of growth (i.e. no cloudiness). Judging by 50% inhibition, which is more difficult but is typical for fungal MICs, the MIC for CSA-44 relative to C. albicans can be extrapolated to 4 μg/ml, and the MIC for CSA-148 relative to C. albicans can be extrapolated to 2 μg/ml.

Assay [1] deals with Pseudomonas aeruginosa (PA01 47085). The method, then:
as §1

Assay [2] relates to methicillin resistant Staphylococcus aureus (MRSA) BAA-41. The method, then: as §1

Take `CCCCCCCCOC(=O)CC[C@@H](C)[C@H]1CC[C@H]2[C@@H]3[C@H](OC(=O)CCN)C[C@@H]4C[C@H](OC(=O)CCN)CC[C@]4(C)[C@H]3C[C@H](OC(=O)CCN)[C@]12C` [CSA-44]: the MIC in the assay with Candida albicans 90028 (C. albicans 90028, based on 100% inhibition of growth (no cloudiness)) is 8 µg/mL (≈ 10.9 µM); in the assay on Candida albicans 90028 (C. albicans, judging by 50% inhibition, extrapolated) it was 4 µg/mL (≈ 5.45 µM); in assay [1] it was 2 µg/mL (≈ 2.72 µM); in assay [2] it was 2 µg/mL (≈ 2.72 µM).
For the compound `CC(C)=CCC/C(C)=C/COC(=O)CC[C@@H](C)[C@H]1CC[C@H]2[C@@H]3[C@H](OC(=O)CCN)C[C@@H]4C[C@H](OC(=O)CCN)CC[C@]4(C)[C@H]3C[C@H](OC(=O)CCN)[C@]12C` [CSA-148], the minimum inhibitory concentration (MIC) with Candida albicans 90028 (Candida albicans, 90028, C. albicans 90028, based on 100% inhibition of growth (no cloudiness), read-out: MIC) is 4 µg/mL (≈ 5.28 µM); in the assay with Candida albicans 90028 (Candida albicans, 90028, C. albicans, judging by 50% inhibition, extrapolated, read-out: MIC), 2 µg/mL (≈ 2.64 µM); in assay [1] (Pseudomonas aeruginosa, read-out: MIC), 2 µg/mL (≈ 2.64 µM); in assay [2] (Staphylococcus aureus, read-out: MIC) it was 2 µg/mL (≈ 2.64 µM).

A word on the MIC: it is the lowest concentration found to suppress growth.
